In PMC9414913, “Tyrosinase Inhibitors Derived from Chemical Constituents of Dianella ensifolia” (Plants, 2022):

These molecules were tested against mushroom tyrosinase (Agaricus bisporus, UniProt C7FF04) (assay: In vitro mushroom tyrosinase inhibition assay). Settings: compared with arbutin (positive control).
Assay type: biochemical
Procedure: The mushroom tyrosinase inhibitory assay has been described in detail previously. Briefly, various concentrations of test compounds (100 μL) and 2 mM L-tyrosine (80 μL, Sigma-Aldrich, St. Louis, MO, USA) were mixed in 96-well plates. 20 μL of mushroom tyrosinase (1000 U/mL, Sigma-Aldrich, USA) was added to initiate the assay. The absorbance of the mixture was measured at 490 nm using a microplate reader (μQuant™, BioTek Winooski, VT, USA).

Chain of mushroom tyrosinase (G1K3P4 entry or part of it): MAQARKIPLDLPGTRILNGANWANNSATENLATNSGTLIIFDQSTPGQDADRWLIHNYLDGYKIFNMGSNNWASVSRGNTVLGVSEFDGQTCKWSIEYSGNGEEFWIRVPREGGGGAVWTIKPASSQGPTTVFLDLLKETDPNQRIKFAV
Chain of mushroom tyrosinase (C7FF04 2-392): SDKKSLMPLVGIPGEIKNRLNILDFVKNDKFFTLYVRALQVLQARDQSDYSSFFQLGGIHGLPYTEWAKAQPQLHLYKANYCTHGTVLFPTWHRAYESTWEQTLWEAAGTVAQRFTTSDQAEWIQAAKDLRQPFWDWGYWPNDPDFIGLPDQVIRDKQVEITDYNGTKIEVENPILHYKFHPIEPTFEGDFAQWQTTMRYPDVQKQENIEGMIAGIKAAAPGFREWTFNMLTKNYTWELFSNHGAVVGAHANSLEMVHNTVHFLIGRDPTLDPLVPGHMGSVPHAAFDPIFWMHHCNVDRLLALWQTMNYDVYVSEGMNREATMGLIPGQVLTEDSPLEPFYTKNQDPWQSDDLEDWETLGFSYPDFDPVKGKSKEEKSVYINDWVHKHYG

Row | SMILES | mushroom tyrosinase inhibitory effect, in words
1 | COc1ccc2c(c1C)O[C@H](c1cc(O)c(OC)c(O)c1)CC2 [Compound 12, (2S)-3’,5’-dihydroxy-7,4’-dimethoxy-8-methylflavan] | moderate or weak activity
2 | O=c1cc(-c2ccc(O)c(O)c2)oc2cc(O)cc(O)c12 [Compound 20, luteolin] | more substantial inhibitory effect against mushroom tyrosinase than arbutin
3 | Oc1ccc([C@@H]2CCc3ccc(O)cc3O2)cc1 [Compound 8, (2S)-7,4’-dihydroxyflavan] | moderate or weak activity
4 | Cc1c(O)ccc2c1O[C@H](c1ccc(O)cc1)CC2 [Compound 10, (2S)-7,4’-dihydroxy-8-methylflavan] | moderate or weak activity
5 | O=c1cc(-c2ccc(O)cc2)oc2cc(O)cc(O)c12 [Compound 21, apigenin] | more substantial inhibitory effect against mushroom tyrosinase than arbutin
6 | CC(=O)c1c(C)cc2c(c1O)C(=O)CCC2O (stereo not shown) [Compound 41, 7-acetyl-4,8-dihydroxy-6-methyl-1-tetralone] | moderate or weak activity
7 | O=C1C[C@@H](c2ccc(O)cc2)Oc2cc(O)ccc21 [Compound 15, (2S)-liquiritigenin] | more substantial inhibitory effect against mushroom tyrosinase than arbutin
8 | COc1ccc2c(c1C)O[C@H](c1ccc(O)c(O)c1)CC2 [Compound 2, (2S)-3’,4’-dihydroxy-7-methoxy-8-methylflavan] | more substantial inhibitory effect against mushroom tyrosinase than arbutin
9 | COc1cc2c(cc1OC)O[C@H](c1ccc(O)cc1)CC2 [Compound 1, (2S)-4’-hydroxy-6,7-dimethoxyflavan] | moderate or weak activity
10 | COc1ccc2c(c1)O[C@H](c1ccccc1O)CC2 [Compound 3, (2S)-2’-hydroxy-7-methoxyflavan] | moderate or weak activity
11 | COc1ccc([C@@H]2CCc3cc(OC)c(O)cc3O2)cc1O [Compound 13, (2S)-7,3′-dihydroxy-6,4’-dimethoxyflavan] | moderate or weak activity
12 | COc1ccc2c(c1C)OC(C1(O)C=CC(=O)CC1)CC2 [Compound 4, (2S,1′S)-4-hydroxy-4-(7-methoxy-8-methylchroman-2-yl)-cyclohex-2-enone] | moderate or weak activity

Same assay, conditions: substrate 2 mM L-tyrosine; absorbance at 490 nm; read-out: IC50 (mushroom tyrosinase inhibitory effect)

Row | SMILES | IC50 [µM]
13 | O=C1C[C@@H](c2ccc(O)cc2)Oc2cc(O)ccc21 [Compound 15, (2S)-liquiritigenin] | 109 ± 6.2
